In the supplement of paper PMC10307832:

How the values were obtained:
Experiment in all cases: relative viability (nuclei count vs DMSO), 5 days (fraction); higher = more cells survive
Cediranib + Trametinib = compound: COc1cc2c(Oc3ccc4[nH]c(C)cc4c3F)ncnc2cc1OCCCN1CCCC1 [Cediranib] + CC(=O)Nc1cccc(-n2c(=O)n(C3CC3)c(=O)c3c(Nc4ccc(I)cc4F)n(C)c(=O)c(C)c32)c1 [Trametinib] (partner 0.02 µM)
How it was run: (§1)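 Lung cancer cell lines were pin-tool dosed in 1536-well plates on the day after seeding, with either a lone drug or a fixed anchor-drug dose plus five library-drug doses (not always all listed) in √10 steps. Nuclei were counted on 4× images after 5 days. Relative viability is the ratio of treated-well to vehicle-well nuclei counts, with each value a median of duplicate plates.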

Cediranib + Dasatinib = compound: COc1cc2c(Oc3ccc4[nH]c(C)cc4c3F)ncnc2cc1OCCCN1CCCC1 [Cediranib] + Cc1nc(Nc2ncc(C(=O)Nc3c(C)cccc3Cl)s2)cc(N2CCN(CCO)CC2)n1 [Dasatinib] (partner 0.075 µM)
How it was run: as §1

Decitabine + Linsitinib = compound: Nc1ncn([C@H]2C[C@H](O)[C@@H](CO)O2)c(=O)n1 [Decitabine] + C[C@]1(O)C[C@@H](c2nc(-c3ccc4ccc(-c5ccccc5)nc4c3)c3c(N)nccn32)C1 [Linsitinib] (partner 1 µM)
How it was run: as §1

Decitabine + Dasatinib = compound: Nc1ncn([C@H]2C[C@H](O)[C@@H](CO)O2)c(=O)n1 [Decitabine] + Cc1nc(Nc2ncc(C(=O)Nc3c(C)cccc3Cl)s2)cc(N2CCN(CCO)CC2)n1 [Dasatinib] (partner 0.075 µM)
How it was run: as §1

Cell Line	relative viability (Cediranib + Trametinib; first compound 0.04 µM)	relative viability (Cediranib + Trametinib; first compound 0.1265 µM)	relative viability (Cediranib + Trametinib; first compound 0.4 µM)	relative viability (Cediranib + Trametinib; first compound 1.265 µM)	relative viability (Cediranib + Trametinib; first compound 4 µM)	relative viability (Cediranib + Dasatinib; first compound 0.04 µM)	relative viability (Cediranib + Dasatinib; first compound 0.4 µM)	relative viability (Cediranib + Dasatinib; first compound 1.265 µM)	relative viability (Cediranib + Dasatinib; first compound 4 µM)	relative viability (Decitabine + Linsitinib; first compound 0.1265 µM)	relative viability (Decitabine + Linsitinib; first compound 0.4 µM)	relative viability (Decitabine + Linsitinib; first compound 1.265 µM)	relative viability (Decitabine + Linsitinib; first compound 4 µM)	relative viability (Decitabine + Dasatinib; first compound 0.04 µM)	relative viability (Decitabine + Dasatinib; first compound 0.1265 µM)	relative viability (Decitabine + Dasatinib; first compound 0.4 µM)	relative viability (Decitabine + Dasatinib; first compound 1.265 µM)	relative viability (Decitabine + Dasatinib; first compound 4 µM)	relative viability (Cediranib + Dasatinib; first compound 0.1265 µM)	relative viability (Decitabine + Linsitinib; first compound 0.04 µM)
HCC-827	0.6	0.791	0.529	0.539	0.497	0.284	0.226	0.309	0.275	0.501	0.396	0.324	0.93	0.139	0.317	0.325	0.284	0.267	–	–
HOP-62	0.442	0.404	0.346	0.387	0.42	0.698	0.577	0.617	0.77	0.307	0.159	0.138	1.05	0.634	0.622	0.284	0.14	0.147	0.909	0.617
IA-LM	–	–	–	–	–	–	–	–	–	0.461	0.174	0.155	0.129	–	–	–	–	–	–	0.281
LC-2-ad	0.94	0.915	0.901	0.995	0.841	0.555	0.427	0.496	0.403	0.746	0.51	0.497	0.378	0.416	0.603	0.404	0.262	0.261	0.654	0.732
LCLC-97TM1	0.196	–	0.207	0.187	0.214	0.893	0.799	0.876	0.834	0.199	0.166	0.116	0.213	0.535	0.507	0.42	0.222	0.119	0.81	0.183
LCLC-103H	0.73	0.664	0.676	0.747	0.7	0.594	0.413	0.511	0.5	1.13	1.12	0.882	0.888	0.507	0.57	0.457	0.337	0.374	0.578	1.06
LK-2	0.889	0.573	0.668	0.742	0.643	0.283	0.331	0.212	0.262	0.637	0.509	0.502	0.387	0.406	0.445	0.227	0.266	0.301	0.224	0.462
LOU-NH91	0.841	0.808	0.796	0.751	0.786	0.522	0.51	0.495	0.552	0.839	0.779	0.693	0.735	0.43	0.551	0.627	0.491	0.519	0.78	0.575
LU99A	0.553	–	0.544	0.515	0.568	0.504	0.513	0.433	0.655	0.584	0.603	0.442	0.374	0.508	0.615	0.653	0.481	0.373	0.465	0.45
LXF-289	0.671	–	0.676	0.651	0.632	0.252	0.192	0.3	0.236	0.674	0.566	0.372	0.395	0.201	0.193	0.129	0.118	0.0831	0.3	0.893
NCI-H23	0.483	0.426	0.419	0.325	0.424	0.729	0.7	0.375	1.07	0.381	0.252	0.215	0.229	0.689	0.653	0.356	0.271	0.192	–	0.571
NCI-H322M	0.475	0.489	0.526	0.528	0.568	0.239	0.247	0.258	0.255	0.844	0.737	0.497	0.472	0.246	0.327	0.299	0.285	0.349	0.277	0.773
NCI-H522	0.785	0.675	0.755	0.864	0.756	0.827	0.85	0.965	0.811	–	–	–	–	1.02	0.748	0.607	0.632	0.678	0.77	–
NCI-H1299	–	–	–	–	–	–	–	–	–	1.06	1.03	0.918	0.802	–	–	–	–	–	–	0.976
NCI-H1563	–	–	–	–	–	0.494	0.498	0.513	0.492	1.21	1.41	1.23	1.17	0.447	0.462	0.584	0.485	0.499	0.897	1.33
NCI-H1623	–	–	–	–	–	0.618	0.523	0.463	0.536	–	–	–	–	0.464	0.494	0.461	0.467	0.514	–	–
NCI-H1648	0.442	0.499	0.539	0.462	0.495	–	–	–	–	–	–	–	–	–	–	–	–	–	–	–
NCI-H1650	0.574	0.606	0.541	0.54	0.393	0.343	0.328	0.37	0.299	–	–	–	–	0.328	0.314	0.247	0.26	0.248	0.384	–
NCI-H1703	–	–	–	–	–	–	–	–	–	0.553	0.226	0.242	0.201	–	–	–	–	–	–	0.546
NCI-H2170	0.993	–	0.935	0.81	0.986	0.523	0.605	0.384	0.566	–	–	–	–	0.528	0.502	0.461	0.269	0.228	0.713	–
NCI-H2342	0.841	0.897	0.849	0.877	0.812	0.334	0.288	0.295	0.327	–	–	–	–	0.329	0.365	0.308	0.295	0.303	0.392	–
SW 900	0.76	1.08	0.636	0.83	0.885	0.629	0.594	0.654	0.524	–	–	–	–	0.35	0.405	0.387	0.292	0.163	0.669	–
